In US20100257640A1, “METHOD FOR GROWING SUGARCANE” (SYNGENTA CROP PROTECTION, INC., priority 2007, published 2010):

Tests used:
[1] = tested on: sugar cane Variety RB 86-7515; assay: Greenhouse pot test: effect of formulated clothianidin on vigour; type: in vivo; settings: carretels; result in words
Method: Greenhouse test with sugarcane buds growing in pots were conducted to study the effect of clothianidin equivalent to an application rate of 200 g ai. ha^−1 on “vigour”, evaluating tillers, plant height, leaf width and culm diameter. This trial was conducted on sugar cane Variety RB 86-7515.
1) carretel with one bud treated with clothianidin (200 g ai. ha^−1) 2) carretel with one bud treated with clothianidin (200 g ai. ha^−1)+15% v/v of polymer 3) stalk with 3 buds untreated 4) carretel with one bud untreated+15% v/v of polymer 5) carretel with one bud untreated 6) stalk with 3 buds treated with clothianidin (200 g ai. ha^−1).
Twenty 1 L pots were filled with 16 L of clay soil, 1.6 L of sand and 8 g of nitrogen, 28 g of phosphorus (P2O5) and 16 g of potassium (K2O). Six carretels of 4 cm length with one bud were planted in each pot (treatments 1, 2, 4 and 5). Two stalks with three buds were planted in each control pot (treatments 3 and 6) to simulate conventional planting. A layer of 3 cm of soil was used to cover the carretels. The carretels of treatments 1 and 2 were treated with 200 g ai.ha^−1 of clothianidin, by dipping the carretels in a slurry for 3 min. The stalks were treated simulating a furrow application at 100 L.ha^−1 of slurry. The pots were maintained with adequate moisture during the test. […]

[2] = tested on: sugar cane Variety RB 86-7515; assay: Greenhouse pot test: effect of formulated fipronil on vigour; type: in vivo; settings: result in words
Method: Greenhouse test with sugarcane buds growing in pots were conducted to study the effect of fipronil equivalent to an application rate of 200 g. ha^−1 on “vigour”, evaluating tillers, plant height, leaf width and culm diameter on sugar cane Variety RB 86-7515.
Twenty 1 L pots were filled with 16 L of clay soil, 1.6 L of sand and 8 g of nitrogen, 28 g of phosphorus (P2O5) and 16 g of potassium (K2O). Six carretels of 4 cm length with one bud were planted in each pot (treatments 1, 2, 4 and 5). Two stalks with three buds were planted in each control pot (treatments 3 and 6) to simulate conventional planting. A layer of 3 cm of soil was used to cover the carretels. The carretels of treatments 1 and 2 were treated with 200 g ai.ha^−1 of fipronil, by dipping the carretels in the slurry for 3 min, based on the uptake capacity of carretels. The stalks were treated simulating a furrow application at 100 L.ha^−1 of slurry. Experimental design adopted was randomized complete block with four replications. The pots were maintained with adequate moisture during the test. Evaluations of: plant height, leaf width, culm diameter and number of tillers were done at 20, 30 and 42 days after planting.

[3] = tested on: sugar cane Variety RB 86 7515; assay: Greenhouse pot test: effect of formulated imidacloprid on vigour; type: in vivo; settings: result in words
Description: 1) carretel with one bud treated with Imidacloprid (1200 g. ha^−1) 2) carretel with one bud treated with Imidacloprid (1200 g. ha^−1)+15% v/v of polymer 3) stalk with 3 buds untreated 4) carretel with one bud untreated 5) carretel with one bud untreated+15% v/v of polymer 6) stalk with 3 buds treated with Imidacloprid (1200 g. ha^−1).
Twenty 1 L pots were filled with 16 L of clay soil, 1.6 L of sand and 8 g of nitrogen, 28 g of phosphorus (P2O5) and 16 g of potassium (K2O). Six carretels of 4 cm length with one bud were planted in each pot (treatments 1, 2, 4 and 5). Two stalks with three buds were planted in each control pot (treatments 3 and 6) to simulate conventional planting. A layer of 3 cm of soil was used to cover the carretels. The carretels of treatments 1 and 2 were treated with 1200 g ai.ha^−1 of imidacloprid, by dipping the carretels in the slurry for 3 min, based on the uptake capacity of carretels. The stalks were treated simulating a furrow application at 100 L.ha^−1 of slurry. Experimental design adopted was randomized complete block with four replications. The pots were maintained with adequate moisture during the test. Evaluations of: plant height, leaf width, culm diameter and number of tillers were done at 20, 30 and 42 days after planting.

[4] = tested on: Variety RB 86-7515; assay: Greenhouse pot test: effect of formulated thiamethoxam on vigour; type: in vivo, sugarcane
Method: This trial was conducted on Variety RB 86-7515.

[5] = tested on: sugar cane Variety RB 86-7515; assay: Greenhouse pot test: effect of formulated abamectin on vigour (tillers, plant height, leaf width, culm diameter); type: in vivo
Method: Greenhouse test with sugarcane buds growing in pots were conducted to study the effect of formulated abamectin regarding “vigour”, tillers, plant height, leaf width and culm diameter on sugar cane Variety RB 86-7515.
1) carretel with one bud treated with abamectin 2) carretel with one bud treated with abamectin+15% v/v of polymer 3) stalk with 3 buds untreated 4) carretel with one bud untreated 5) carretel with one bud untreated+15% v/v of polymer 6) stalk with 3 buds treated with abamectin.
Twenty 1 L pots were filled with 16 L of clay soil, 1.6 L of sand and 8 g of nitrogen, 28 g of phosphorus (P2O5) and 16 g of potassium (K2O). Six carretels of 4 cm length with only one bud were planted in each pot (treatments 1, 2, 4 and 5). Two stalks with three buds were planted in each control pot (treatments 3 and 6) to simulate conventional planting. A layer of 3 cm of soil was used to cover the carretels. The carretels of treatments 1, 2 were treated with 200 ml/ha of abamectin, by dipping the carretels in the slurry for 3 min, based on the uptake capacity of carretels. The stalks were treated simulating a furrow application at 100 L.ha^−1 of slurry. Experimental design adopted was randomized complete block with four replications. The pots were maintained with adequate moisture during the test. […]

CN/C(=N\[N+](=O)[O-])NCc1cnc(Cl)s1 [Clothianidin, clothianidin]
number of tillers in comparison with the corresponding control (untreated, one-bud) [1]: increased number of tillers
plant height in comparison with the corresponding control (untreated, one-bud) [1]: slight reduction in the plant height

N#Cc1nn(-c2c(Cl)cc(C(F)(F)F)cc2Cl)c(N)c1[S+]([O-])C(F)(F)F (stereo not shown) [Fipronil, fipronil]
height of the resultant plants in comparison with the control [2]: decreased the height of the resultant plants in comparison with the control
number of tillers in comparison with the control [2]: increased the number of tillers present on the plants

O=[N+]([O-])NC1=NCCN1Cc1ccc(Cl)nc1 [Imidacloprid, imidacloprid]
number of tillers in comparison with the control [3]: increase in the number of tillers in comparison with the control

CN1COCN(Cc2cnc(Cl)s2)/C1=N\[N+](=O)[O-] [Thiamethoxam, thiamethoxam]
increase in "quality" ([4]; against the other treatments, not apparent from the listed parameters): greater than the other treatments
number of tillers in comparison with the corresponding controls ([4]; carretels, result in words): increased number of tillers
plant height in comparison with the corresponding controls ([4]; carretels, result in words): reduced plant height

abamectin
Tillers ([5]; carretel with one bud, dipped 3 min, 100 g ai/ha (Untreated + Polymer 0.0), polymer 15% v/v where named, 42 days after planting): 14 number
number of tillers in comparison with the control ([5]; result in words): increase in the number of tillers in comparison with the control
